Measurements as given in PubChem BioAssay (NCI).
Several values for one entry are separate records, joined by “and”; a condition that tells them apart may be missing. Identical values can stand only once.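 1) Cells in 96-well plates. 2) Compound, 48 h, 5 concentrations. 3) Linear interpolation between surrounding doses. 4) Unreached endpoint = highest concentration. Abbreviation: GI50, concentration required for 50% inhibition of growth. TGI: concentration producing complete growth inhibition.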

Columns and labels:
Assay in all cases: NCI anticancer screen, dose series, 48 h
A498 renal = tested on: A498 renal
ACHN renal = tested on: ACHN renal
COLO 205 colon = tested on: COLO 205 colon
HCT-116 colon = tested on: HCT-116 colon
HL-60(TB) leukemia = tested on: HL-60(TB) leukemia
IGROV1 ovarian = tested on: IGROV1 ovarian
MDA-MB-231 breast = tested on: MDA-MB-231 breast
NCI-H522 lung = tested on: NCI-H522 lung
SN12C renal = tested on: SN12C renal
OVCAR-5 ovarian = tested on: OVCAR-5 ovarian

SMILES | TGI (A498 renal) | TGI (ACHN renal) | TGI (COLO 205 colon) | TGI (HCT-116 colon) | TGI (HL-60(TB) leukemia) | TGI (IGROV1 ovarian) | TGI (MDA-MB-231 breast) | TGI (NCI-H522 lung) | TGI (SN12C renal) | GI50 (A498 renal) | GI50 (ACHN renal) | GI50 (COLO 205 colon) | GI50 (HCT-116 colon) | GI50 (HL-60(TB) leukemia) [µM] | GI50 (IGROV1 ovarian) | GI50 (MDA-MB-231 breast) | GI50 (NCI-H522 lung) | GI50 (OVCAR-5 ovarian) | TGI (OVCAR-5 ovarian) | GI50 (SN12C renal)
Cc1cccc(Nc2cnc(N)nc2N)c1 | > 100 µM | > 100 µM | > 100 µM | > 100 µM | > 100 µM | > 100 µM | > 100 µM | > 100 µM | > 100 µM | – | – | – | – | – | – | – | – | – | – | –
COc1ccc2nc(NC(=O)c3cccnc3Nc3cc(OC)c(OC)c(OC)c3)sc2c1 | 7.42 µM | 20.6 µM | 51.5 µM | 18.4 µM | > 100 µM | 28.5 µM | 21.7 µM | 12 µM | 27.5 µM | 2.19 µM | 6.47 µM | 17.4 µM | 4.5 µM | 32.3 | 13.2 µM | 5.62 µM | 2.6 µM | 14.5 µM | 29 µM | 11.7 µM
COc1ccc(-c2nn(-c3cccc(NC(=O)c4ccc(N5CCOCC5)c(C(F)(F)F)c4)c3)cc2-c2ccncc2)cc1Cl | 26.4 µM | > 50 µM | > 50 µM | > 50 µM | > 50 µM | > 50 µM | > 50 µM | 34.4 µM | > 50 µM | 2.44 µM | 10.2 µM | 4.25 µM | 3.74 µM | 4.42 | > 50 µM | 2.29 µM | 2.77 µM | > 50 µM | > 50 µM | > 50 µM
CC1=C(/C=C/C(C)=C/C=C/C(C)=C/CO)C(C)(C)CCC1 | 42.6 µM | > 100 µM | 38.3 µM | – | 45.3 µM | 57.7 µM | 78.5 µM | 54.7 µM | 60.8 µM | – | – | – | – | – | – | – | – | – | 61.2 µM | –
O=[N+]([O-])c1ccc(S(=O)(=O)Cc2ccccc2)c2nonc12 | > 100 µM | 46.1 µM | 31.1 µM | 31.8 µM | 45.9 µM | 37.3 µM | 50.7 µM | 38 µM | 28.5 µM | – | – | – | – | – | – | – | – | – | > 100 µM | –
OCCN1CCN(CC/C=C2\c3ccccc3Sc3ccc(Cl)cc32)CC1 | 4.29 µM and 7.94 µM | 17 µM and 17.9 µM | 3.24 µM and 3 µM | 4.85 µM and 4.18 µM | 3.71 µM and 9.92 µM | 12.7 µM and 11 µM | 12 µM and 6.46 µM | 29.1 µM and 3.38 µM | 27.4 µM and 20.4 µM | 2.14 µM and 1.84 µM | 5.06 µM and 6.56 µM | 1.65 µM and 1.59 µM | 2.39 µM and 1.98 µM | 4.04 | 3.21 µM and 3.51 µM | 2.62 µM and 2.09 µM | 11.6 µM and 1.75 µM | 3.75 µM and 11.8 µM | 14.1 µM and 24.9 µM | 7.12 µM and 7.01 µM
CC(C)CCN[C@@H]1CCc2cc(O)c(N3CC(=O)NS3(=O)=O)c(F)c2C1 | > 100 µM | > 100 µM | > 100 µM | > 100 µM | > 100 µM | > 100 µM | > 100 µM | > 100 µM | > 100 µM | > 100 µM | > 100 µM | > 100 µM | > 100 µM | > 100 | > 100 µM | > 100 µM | > 100 µM | > 100 µM | > 100 µM | > 100 µM
